Measured values reported in the supplement of paper PMC11451515.

Tested on: NOMO1
Experiment: cell viability relative to DMSO control; higher = less cytotoxic
Conditions: 48 h
Outline: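 NOMO1, SEM and P12-Ichikawa leukemia cells spent at least four passages adapting to each medium before use. They were seeded at 500 cells/well (NOMO1, SEM) or 1000 cells/well (P12-Ichikawa) in 5 μl in 1536-well plates and pin-dosed with library compounds in DMSO at 11 threefold steps from 47 μM down to 0.79 nM. After 48 h at 37°C, CellTiter-Glo One luminescence was read. Viability is reported as a percentage of the DMSO wells on each plate, with cell-free wells as background.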

[1] = HPLM + 10% dialyzed FBS, 0.000781 µM
[2] = HPLM + 10% dialyzed FBS, 0.00234 µM
[3] = HPLM + 10% dialyzed FBS, 0.00702 µM
[4] = HPLM + 10% dialyzed FBS, 0.0211 µM
[5] = HPLM + 10% dialyzed FBS, 0.0632 µM
[6] = HPLM + 10% dialyzed FBS, 0.19 µM
[7] = HPLM + 10% dialyzed FBS, 0.569 µM
[8] = HPLM + 10% dialyzed FBS, 1.71 µM
[9] = HPLM + 10% dialyzed FBS, 5.12 µM
[10] = HPLM + 10% dialyzed FBS, 15.4 µM
[11] = HPLM + 10% dialyzed FBS, 46.1 µM
[12] = RPMI 5 mM glucose + 10% FBS, 0.000781 µM
[13] = RPMI 5 mM glucose + 10% FBS, 0.00234 µM
[14] = RPMI 5 mM glucose + 10% FBS, 0.00702 µM
[15] = RPMI 5 mM glucose + 10% FBS, 0.0211 µM
[16] = RPMI 5 mM glucose + 10% FBS, 0.0632 µM
[17] = RPMI 5 mM glucose + 10% FBS, 0.19 µM
[18] = RPMI 5 mM glucose + 10% FBS, 0.569 µM
[19] = RPMI 5 mM glucose + 10% FBS, 1.71 µM
[20] = RPMI 5 mM glucose + 10% FBS, 5.12 µM
[21] = RPMI 5 mM glucose + 10% FBS, 15.4 µM
[22] = RPMI 5 mM glucose + 10% FBS, 46.1 µM
[23] = RPMI 5 mM glucose + 10% dialyzed FBS, 0.000781 µM
[24] = RPMI 5 mM glucose + 10% dialyzed FBS, 0.00234 µM
[25] = RPMI 5 mM glucose + 10% dialyzed FBS, 0.00702 µM
[26] = RPMI 5 mM glucose + 10% dialyzed FBS, 0.0211 µM
[27] = RPMI 5 mM glucose + 10% dialyzed FBS, 0.0632 µM
[28] = RPMI 5 mM glucose + 10% dialyzed FBS, 0.19 µM
[29] = RPMI 5 mM glucose + 10% dialyzed FBS, 0.569 µM
[30] = RPMI 5 mM glucose + 10% dialyzed FBS, 1.71 µM
[31] = RPMI 5 mM glucose + 10% dialyzed FBS, 5.12 µM
[32] = RPMI 5 mM glucose + 10% dialyzed FBS, 15.4 µM
[33] = RPMI 5 mM glucose + 10% dialyzed FBS, 46.1 µM

Structure (SMILES) | cell viability [1] [%] | cell viability [2] [%] | cell viability [3] [%] | cell viability [4] [%] | cell viability [5] [%] | cell viability [6] [%] | cell viability [7] [%] | cell viability [8] [%] | cell viability [9] [%] | cell viability [10] [%] | cell viability [11] [%] | cell viability [12] [%] | cell viability [13] [%] | cell viability [14] [%] | cell viability [15] [%] | cell viability [16] [%] | cell viability [17] [%] | cell viability [18] [%] | cell viability [19] [%] | cell viability [20] [%] | cell viability [21] [%] | cell viability [22] [%] | cell viability [23] [%] | cell viability [24] [%] | cell viability [25] [%] | cell viability [26] [%] | cell viability [27] [%] | cell viability [28] [%] | cell viability [29] [%] | cell viability [30] [%] | cell viability [31] [%] | cell viability [32] [%] | cell viability [33] [%]
CC(C)c1noc(N2CCC(COc3ccc(-c4ccc([S+](C)(=O)[O-])cc4)nc3)CC2)n1 | 122 | 104 | 117 | 103 | 122 | 108 | 120 | 109 | 94.3 | 109 | 116 | 114 | 113 | 122 | 118 | 121 | 114 | 122 | 104 | 105 | 110 | 100 | 118 | 122 | 118 | 122 | 117 | 128 | 119 | 109 | 116 | 113 | 107
O=C1c2ccccc2-[n+]2ccc3c([nH]c4ccccc43)c21 | 106 | 114 | 125 | 93.1 | 103 | 120 | 104 | 99.6 | 62 | 2.96 | 2.32 | 98 | 115 | 104 | 110 | 112 | 103 | 112 | 108 | 87 | 3.28 | 2.18 | 91.3 | 116 | 107 | 97.1 | 98.5 | 126 | 101 | 102 | 66.4 | 3.34 | 2
O=C(C=CC#Cc1cccc(N[S+](=O)([O-])c2ccccc2)c1)NO | 116 | 121 | 116 | 131 | 137 | 142 | 126 | 107 | 36.1 | 7.6 | 3.17 | 124 | 123 | 109 | 138 | 119 | 129 | 135 | 117 | 41.9 | 7.03 | 3.62 |  |  |  |  |  |  |  |  |  |  | 
NC\1=N\C(=O)N(\C=C1)[C@@H]2O[C@H](CO)[C@@H](O)[C@@H]2O | 76.3 | 79.8 | 47.7 | 62.9 | 33.9 | 30.6 | 31.5 | 25.8 | 20.3 | 20 | 6.26 | 76 | 83.3 | 83.1 | 74.8 | 54.1 | 24.4 | 25.1 | 21.3 | 14.6 | 8.18 | 3.59 | 66.8 | 68.6 | 53.4 | 49.9 | 29.8 | 18.3 | 25.8 | 14.7 | 16.6 | 12.6 | 7.75
CC(C)(C#N)c1cc(Cn2cncn2)cc(C(C)(C)C#N)c1 |  |  |  |  |  |  |  |  |  |  |  | 123 | 106 | 102 | 111 | 109 | 106 | 127 | 114 | 44.2 | 106 | 107 |  |  |  |  |  |  |  |  |  |  | 
Cc1nn(Cc2ccccc2Cl)c(C)c1CN(C)CC(O)COc1ccc(Cl)cc1 (configuration not stated) | 106 | 101 | 98 | 97.7 | 99.7 | 103 | 108 | 106 | 85.8 | 83.1 | 22.5 | 100 | 92.9 | 89.1 | 90.4 | 90.5 | 94.1 | 99.5 | 93.7 | 90.8 | 85.6 | 34.5 | 94.7 | 101 | 110 | 101 | 106 | 99.4 | 100 | 94.4 | 83.9 | 75.3 | 27.2
FC1=CC=C(C=C1)N2/C=C\C=C(C(=O)NC3=CC=C(OC4=C5C=C[NH]C5=NC=C4)C(=C3)F)/C2=O | 97 | 117 | 106 | 108 | 104 | 144 | 114 | 124 | 119 | 122 | 112 | 104 | 111 | 109 | 110 | 112 | 125 | 116 | 138 | 115 | 101 | 120 | 96.1 | 92.7 | 94.5 | 107 | 108 | 108 | 102 | 124 | 106 | 115 | 108
OC(c1cc(C(F)(F)F)nc2c(C(F)(F)F)cccc12)C1CCCCN1 (configuration not stated) | 117 | 124 | 115 | 127 | 146 | 150 | 158 | 142 | 143 | 114 | 8.46 |  |  |  |  |  |  |  |  |  |  |  |  |  |  |  |  |  |  |  |  |  | 
C[N]1C=C(C=N1)C2=C3\C=N/NC(=O)C4=C3C(=CC(=C4)NC(=O)[C@H](N)C5CCCCC5)[NH]2 | 99.8 | 111 | 97.7 | 91.1 | 104 | 101 | 91.6 | 78.3 | 72.6 | 35.7 | 36.6 | 95.1 | 97.2 | 93.5 | 87 | 100 | 97.9 | 84.3 | 86.4 | 80.2 | 26 | 29.1 | 101 | 90.4 | 105 | 89.7 | 90.7 | 87 | 95.4 | 94.1 | 60.3 | 20.5 | 29
